biological target: T1, wild-type HIV-1 protease (Human immunodeficiency virus type 1 group M subtype B, UniProt P04585); experiment: Assay for Inhibition of Microbial Expressed HIV Protease (peptide substrate cleavage, LC-MS/MS readout); assay type: biochemical; settings: E. coli expressed wild-type HIV-1 protease, mean of at least two independent experiments, read-out: HIV Pr Enzyme HIV1 PR IC50
T1 construct: Escherichia coli expressed wild-type HIV-1 protease protein
Procedure, shortened: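 E. coli-expressed wild-type HIV-1 protease ([…]) was preincubated with inhibitor 30 min at room temperature in pH 5.5 acetate buffer (100 mM NaCl, 0.1% BSA). Then 400 μM octapeptide substrate was added and reacted 1 h at 30 °C; inhibition came from LC-MS/MS product peak areas, mean of ≥2 experiments.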

With `N=C1NC(c2ccccc2)(c2ccccc2)C(=O)N1Cc1cccc(C(=O)N2Cc3ccc(F)cc3C2)c1` [Compound 203, 3-{3-[(5-fluoro-1,3-dihydro-2H-isoindol-2-yl)carbonyl]benzyl}-2-imino-5,5-diphenylimidazolidin-4-one] as the compound, how does the IC50 read?
Its IC50 is 6.71 nM.

With `CC(C)CC1(c2ccccc2)NC(=N)N(Cc2cccc(C(=O)N3CCN(c4ncccn4)CC3)c2)C1=O` (stereo not drawn) [Compound 303, 2-imino-5-(2-methylpropyl)-5-phenyl-3-{3-[(4-pyrimidin-2-ylpiperazin-1-yl)carbonyl]benzyl} imidazolidin-4-one] as the compound, how does the IC50 read?
Its IC50 is 45.9 nM.

With `COC(=O)N1CCN(C(=O)c2cccc(CN3C(=N)NC(CCC(C)C)(c4cccc(-c5cccnc5)c4)C3=O)c2)CC1` (stereo not drawn) [Compound 354, methyl 4-[(3-{[2-imino-4-(3-methylbutyl)-5-oxo-4-(3-pyridin-3-ylphenyl)imidazolidin-1-yl]methyl}phenyl)carbonyl] piperazine-1-carboxylate] as the compound, how does the IC50 read?
Its IC50 is 89.1 nM.

`N=C1N[C@](CCCC(F)(F)F)(c2ccc(F)cc2)C(=O)N1Cc1ccc(C(F)(F)F)c(C(=O)N2Cc3cnc(N4CCOCC4)nc3C2)c1` [Compound 83, (5R)-5-(4-fluorophenyl)-2-imino-3-{3-[(2-morpholin-4-yl-5,7-dihydro-6H-pyrrolo[3,4-d]pyrimidin-6-yl)carbonyl]-4-(trifluoromethyl)-benzyl}-5-(4,4,4-trifluorobutyl)imidazolidin-4-one] was tested. Which IC50 did it give?
The IC50 was 13.9 nM.

With `CC(C)CC1(c2ccccc2)NC(=N)N(Cc2cc(C(=O)N3Cc4nccnc4C3)ccn2)C1=O` (stereo not drawn) [Compound 403, 3-{[4-(5,7-dihydro-6H-pyrrolo[3,4-b]pyrazin-6-ylcarbonyl)pyridin-2-yl]methyl}-2-imino-5-(2-methylpropyl)-5-phenylimidazolidin-4-one] as the compound, how does the IC50 read?
The IC50 was 54.3 nM.

`N=C1NC(CCC2CC2)(c2ccc(C(F)(F)F)cc2)C(=O)N1Cc1ccc(C(F)(F)F)c(C(=O)N2CCn3c(nnc3C(F)(F)F)C2)c1` (stereo not drawn) [Compound 125, 5-(2-cyclopropylethyl)-2-imino-5-[4-(trifluoromethyl)phenyl]-3-[4-(trifluoromethyl)-3-{[3-(trifluoromethyl)-5,6-dihydro-[1,2,4]triazolo[4,3-a]pyrazin-7(8H)-yl]carbonyl}benzyl] imidazolidin-4-one] was tested. Which IC50 did it give?
Its IC50 is 57.2 nM.

How did the IC50 turn out when `CN1CCN(C(=O)c2cc(F)cc(CN3C(=N)NC(c4ccccc4)(c4ccccc4)C3=O)c2)CC1=O` [Compound 353, 4-({3-fluoro-5-[(2-imino-5-oxo-4,4-diphenylimidazolidin-1-yl)methyl]phenyl}carbonyl)-1-methylpiperazin-2-one] was run?
The IC50 was 88.8 nM.

With `CC(C)CC1(c2cccc(F)c2)NC(=N)N(Cc2cccc(C(=O)N3Cc4ccccc4C3)c2)C1=O` (stereo not drawn) [Compound 264, 3-[3-(1,3-dihydro-2H-isoindol-2-ylcarbonyl)benzyl]-5-(3-fluorophenyl)-2-imino-5-(2-methylpropyl) imidazolidin-4-one] as the compound, how does the IC50 read?
Its IC50 is 24.8 nM.

With `CC(C)CC[C@]1(c2ccccc2)NC(=N)N(Cc2cc(F)cc(C(=O)N3Cc4nccnc4C3)c2)C1=O` [Compound 207, (5R)-3-[3-(5,7-dihydro-6H-pyrrolo[3,4-b]pyrazin-6-ylcarbonyl)-5-fluorobenzyl]-2-imino-5-(3-methylbutyl)-5-phenylimidazolidin-4-one] as the compound, how does the IC50 read?
Its IC50 is 8.35 nM.

With `CC(C)CC1(c2ccccc2)NC(=N)N(Cc2ccc(Cl)c(C(=O)N3Cc4cnc(C#N)nc4C3)c2)C1=O` (stereo not drawn) [Compound 364, 6-[(2-chloro-5-{[2-imino-4-(2-methylpropyl)-5-oxo-4-phenylimidazolidin-1-yl]methyl}phenyl)carbonyl]-6,7-dihydro-5H-pyrrolo[3,4-d]pyrimidine-2-carbonitrile] as the compound, how does the IC50 read?
Its IC50 is 4.17 nM.

For `COc1ccc(CN2C(=N)NC(c3ccccc3)(c3ccccc3)C2=O)cc1C(=O)N1Cc2cccc(F)c2C1` [Compound 372, 3-{3-[(4-fluoro-1,3-dihydro-2H-isoindol-2-yl)carbonyl]-4-methoxybenzyl}-2-imino-5,5-diphenylimidazolidin-4-one], which IC50 is on record?
Its IC50 is 6.91 nM.

`CC(C)CCC1(c2ccccc2)NC(=N)N(Cc2ccc(C(F)(F)F)c(C(=O)N3Cc4cnc(C#N)nc4C3)c2)C1=O` (stereo not drawn) [Compound 148, 6-{[5-{[2-imino-4-(3-methylbutyl)-5-oxo-4-phenylimidazolidin-1-yl]methyl}-2-(trifluoromethyl)phenyl]carbonyl}-6,7-dihydro-5H-pyrrolo[3,4-d]pyrimidine-2-carbonitrile] was tested. Which IC50 did it give?
The IC50 was 5.21 nM.

How did the IC50 turn out when `CC(C)CC1(c2ccccc2)NC(=N)N(Cc2cccc(C(=O)N3CCN(c4ccccc4)CC3)c2)C1=O` (stereo not drawn) [Compound 342, 2-imino-5-(2-methylpropyl)-5-phenyl-3-{3-[(4-phenylpiperazin-1-yl)carbonyl]benzyl} imidazolidin-4-one] was run?
Its IC50 is 78.8 nM.

How did the IC50 turn out when `N=C1N[C@@](c2ccc(F)cc2)(C2CCOCC2)C(=O)N1C1CCCc2ccc(C(=O)N3Cc4nccnc4C3)cc21` (stereo in doubt) [Compound 130, (5R)-3-[(1R)-7-(5,7-dihydro-6H-pyrrolo[3,4-b]pyrazin-6-ylcarbonyl)-1,2,3,4-tetrahydronaphthalen-1-yl]-5-(4-fluorophenyl)-2-imino-5-(tetrahydro-2H-pyran-4-yl)imidazolidin-4-one] was run?
Its IC50 is 80.5 nM.

`Cc1nocc1-c1ncc2c(n1)CN(C(=O)c1cc(CN3C(=N)N[C@](CCCC(F)(F)F)(c4ccc(F)cc4)C3=O)ccc1C(F)(F)F)C2` [Compound 60, (5R)-5-(4-fluorophenyl)-2-imino-3-[3-{[2-(3-methylisoxazol-4-yl)-5,7-dihydro-6H-pyrrolo[3,4-d]pyrimidin-6-yl]carbonyl}-4-(trifluoromethyl)benzyl]-5-(4,4,4-trifluorobutyl)imidazolidin-4-one] was tested. Which IC50 did it give?
Its IC50 is 6.55 nM.

With `CN(C)C(=O)C1c2ccccc2CN1C(=O)c1cccc(CN2C(=N)NC(c3ccccc3)(c3ccccc3)C2=O)c1` (stereo not drawn) [Compound 299, 2-({3-[(2-imino-5-oxo-4,4-diphenylimidazolidin-1-yl)methyl]phenyl}carbonyl)-N,N-dimethyl-2,3-dihydro-1H-isoindole-1-carboxamide] as the compound, how does the IC50 read?
The IC50 was 43.9 nM.

With `COC(=O)N1CCN(C(=O)c2cccc(CN3C(=N)NC(c4ccccc4)(c4ccccc4)C3=O)c2)CC1` [Compound 330, methyl 4-({3-[(2-imino-5-oxo-4.4-diphenylimidazolidin-1-yl)methyl]phenyl}carbonyl) piperazine-1-carboxylate] as the compound, how does the IC50 read?
Its IC50 is 67 nM.

For `CC(=O)N1CCN(C(=O)c2cccc(CN3C(=N)NC(c4ccccc4)(c4ccccc4)C3=O)c2)CC1` [Compound 352, 3-{3-[(4-acetylpiperazin-1-yl)carbonyl]benzyl}-2-imino-5,5-diphenylimidazolidin-4-one], which IC50 is on record?
The IC50 was 86.9 nM.

`CC(C)CCC1(c2ccccc2)NC(=N)N(Cc2cc(C(=O)N3Cc4nccnc4C3)ccn2)C1=O` (stereo not drawn) [Compound 400, 3-{[4-(5,7-dihydro-6H-pyrrolo[3,4-b]pyrazin-6-ylcarbonyl)pyridin-2-yl]methyl}-2-imino-5-(3-methylbutyl)-5-phenylimidazolidin-4-one] was tested. Which IC50 did it give?
The IC50 was 25.6 nM.

For `N=C1NC(c2ccc(F)cc2)(c2ccc(F)cc2)C(=O)N1Cc1cccc(C(=O)N2CCN(c3ccccn3)CC2)c1` [Compound 285, 5,5-bis(4-fluorophenyl)-2-imino-3-{3-[(4-pyridin-2-ylpiperazin-1-yl)carbonyl]benzyl} imidazolidin-4-one], which IC50 is on record?
The IC50 was 33.3 nM.

With `N=C1NC(CCC2CC2)(c2cccc(F)c2)C(=O)N1Cc1ccc(C(F)(F)F)c(C(=O)N2Cc3nccnc3C2)c1` (stereo not drawn) [Compound 26, 5-(2-cyclopropylethyl)-3-[3-(5,7-dihydro-6H-pyrrolo[3,4-b]pyrazin-6-ylcarbonyl)-4-(trifluoromethyl)benzyl]-5-(3-fluorophenyl)-2-iminoimidazolidin-4-one] as the compound, how does the IC50 read?
Its IC50 is 2.85 nM.

With `CC(C)Cn1cc(-c2ncc3c(n2)CN(C(=O)c2cc(CN4C(=N)N[C@](CCCC(F)(F)F)(c5ccc(F)cc5)C4=O)ccc2C(F)(F)F)C3)cn1` [Compound 46, (5R)-5-(4-fluorophenyl)-2-imino-3-[3-({2-[1-(2-methylpropyl)-1H-pyrazol-4-yl]-5,7-dihydro-6H-pyrrolo[3,4-d]pyrimidin-6-yl}carbonyl)-4-(trifluoromethyl)-benzyl]-5-(4,4,4-trifluorobutyl)-imidazolidin-4-one] as the compound, how does the IC50 read?
Its IC50 is 4.82 nM.

For `COC(=O)N1CCN(C(=O)c2cccc(CN3C(=N)NC(CCC(C)C)(c4ccccc4)C3=O)c2)CC1` (stereo not drawn) [Compound 255, methyl 4-[(3-{[2-imino-4-(3-methylbutyl)-5-oxo-4-phenylimidazolidin-1-yl]methyl}phenyl)carbonyl] piperazine-1-carboxylate], which IC50 is on record?
Its IC50 is 20.9 nM.

Which IC50 does the source give for `Cc1nc2c(s1)CN(C(=O)c1cccc(CN3C(=N)NC(c4ccccc4)(c4ccccc4)C3=O)c1)C2` [Compound 206, 5-({3-[(2-imino-5-oxo-4,4-diphenylimidazolidin-1-yl)methyl]phenyl}carbonyl)-2-methyl-3,4,5,6-tetrahydropyrrolo[3,4-d][1,3]thiazol-1-ium] here?
The IC50 was 8.2 nM.

How did the IC50 turn out when `N=C1NC(c2ccccc2)(c2ccccc2)C(=O)N1Cc1ccc(Cl)c(C(=O)N2Cc3cncnc3C2)c1` [Compound 374, 3-[4-chloro-3-(5,7-dihydro-6H-pyrrolo[3,4-d]pyrimidin-6-ylcarbonyl)benzyl]-2-imino-5,5-diphenylimidazolidin-4-one] was run?
The IC50 was 7.02 nM.

With `CSc1nnc2n1CCN(C(=O)c1cccc(CN3C(=N)NC(c4ccccc4)(c4ccccc4)C3=O)c1)C2` [Compound 246, 2-imino-3-(3-{[3-(methylsulfanyl)-5,6-dihydro[1,2,4]triazolo[4,3-a]pyrazin-7(8H)-yl]carbonyl}benzyl)-5,5-diphenylimidazolidin-4-one] as the compound, how does the IC50 read?
The IC50 was 17.5 nM.

`N=C1N[C@](CCCC(F)(F)F)(c2ccc(F)cc2)C(=O)N1Cc1ccc(C(F)(F)F)c(C(=O)N2Cc3cnc(-c4ccc(-n5nccn5)cc4)nc3C2)c1` [Compound 117, (5R)-5-(4-fluorophenyl)-2-imino-3-[3-({2-[4-(2H-1,2,3-triazol-2-yl)phenyl]-5,7-dihydro-6H-pyrrolo[3,4-d]pyrimidin-6-yl}carbonyl)-4-(trifluoromethyl)-benzyl]-5-(4,4,4-trifluorobutyl)-imidazolidin-4-one] was tested. Which IC50 did it give?
Its IC50 is 38.5 nM.

From US20200069691A1, “HETEROCYCLIC COMPOUNDS AS HIV PROTEASE INHIBITORS” (Merck Sharp & Dohme Corp., priority 2016, published 2020)
